Holding throughout (assay type): cell-based, human
One test has as its system iMKPC-type I cells. Nature of the test: Cytokine dependence of iMKPC-type I proliferation. The settings on record: SCF 50 ng/ml, TPO 50 ng/ml, 37° C., 14 days, 10T1/2 feeder cells. As to the method: The cytokine dependence of iMKPC-type I was studied by seeding 2×10^5 iMKPC-type I cells on 10T1/2 feeder cells and culturing them for 14 days at 37° C. under the conditions shown in FIG. 1A in the presence of 2 uM of β-estradiol while using the following cytokines: SCF (50 ng/ml), TPO (50 ng/ml), and EPO (6 U/ml). A population in which proliferation was confirmed on Day 4 and Day 11 was counted for cell number, and 2×10^5 cells were replated, while the medium of the other populations was changed. The number of cells was counted on Day 8 and Day 14 and 2×10^5 cells were replated. At the same time, on Day 8, some of the cells were analyzed with a flow cytometer after staining with a CD41 antibody, a CD42b antibody, and a GPA antibody.

In test [1] the test system is iMKPC-type II cells. Briefly: Cytokine dependence and surface markers of iMKPC-type II. The settings on record: for proliferation of iMKPC-type II cells: SCF 50 ng/ml, TPO 50 ng/ml, 39° C., 21 days, Dox 0.5 μg/ml. The procedure: On 10T1/2 feeder cells, 2×10^5 iMKPC-type II cells were seeded, followed by culturing in the presence of 0.5 μg/ml of Dox at 39° C. for 21 days under the conditions of cytokines, that is, SCF (50 ng/ml), TPO (50 ng/ml), and EPO (6 U/ml).
On Day 21 after addition of cytokine, the cells were analyzed with a flow cytometer after staining with a CD41 antibody, a CD42b body, and a GPA antibody.

Test [2] concerns megakaryocytes before polyploidization derived from ES cells. Briefly: Ploidy assay: FACS after Hoechst and anti-CD41a staining. To be noted: for number of cells with 8N or greater: 10 μg/ml. The procedure:
After introduction of MYC and MBI1 genes, the resulting megakaryocytes (about 10^5) were cultured for about 30 days in the absence of doxycycline and presence of estradiol under the culturing conditions of 37° C. and presence of 5% CO2 to proliferate them to about 10^11. Culturing was continued further while changing the condition to the presence of doxycycline and absence of estradiol in order to suppress the expression of the MYC gene and the BMI1 gene in the thus proliferated megakaryocytic cell line and adding an ROCK inhibitor (Y27632; product of Wako Pure Chemicals) to the culture medium to give a concentration of 10 μM in order to determine the influence of Y27632 on polyploidization. On Day 7 after culturing was started while adding Y27632 to the culture medium, the degree of polyploidization was studied using FACS (FIG. 5).
The degree of polyploidization was studied (ploidy assay) by suppressing expression of MYC/BMI1 in the presence of 10 μM of Y27632 while inducing […] of BCL-XL, and culturing the resulting cells for 7 days.
Influence on polyploidization was studied by further treating the cells, which was subjected to the treatment of 2-7-4, with valproic acid. After suppression of expression of MYC/BMI1, forced expression of BCL-XL, treatment with the ROCK inhibitor (10 μM), and suppression of expression of p53, valproic acid (final concentration: 0.5 mM) was added to the medium and culturing was conducted at 39° C. for 7 days.
After suppression of expression of MYC/BMI1, forced expression of BCL-XL, and treatment with blebbistatin (10 μg/ml), the resulting cells were cultured at 39° C. for 7 days.
(§1) Next, the degree of polyploidization when the blebbistatin treatment was used in combination with the other treatments was studied. The cells were subjected to blebbistatin treatment in addition to the above-mentioned treatments in Section 2-7-5 and influence of them on polyploidization was studied. After suppression of expression of MYC/BMI1, forced expression of BCL-XL, treatment with a ROCK inhibitor (10 μM), suppression of expression of p53, and treatment with valproic acid (0.5 mM), treatment with blebbistatin (10 μg/ml) was conducted and then, the resulting cells were cultured at 39° C. for 7 days. […] Induction to mature megakaryocytes was therefore confirmed (lower graph in FIG. 13).

Test [3] has as its system iMKPC-type II cells. Nature of the test: Microscopic observation of polyploidization of iMKPC-type II. To be noted: 5 μg/ml; c-MYC and BMI1 off, BCL-XL forced, p53 knocked down. The source says:
It was observed that by turning off the expression of c-MYC and BMI1, forcing expression of BCL-XL, and knocking down the p53 gene, the cells become increasingly polyploidized.

Another test relates to megakaryocytes (CD41a+). Nature of the test: Growth curve and micrographs of cells treated with blebbistatin plus the other treatments. To be noted: 10 μg/ml with the other treatments, after culturing for 7 days. The procedure:
as §1

Test [4] has as its system iMKPC-type II cells. Nature of the test: Platelet production from iMKPC-type II cells: flow cytometry for CD41/CD42b. The settings on record: 5 μM, 37° C., 3 days, with/without feeder cells and serum. The procedure:
A platelet production efficiency was measured by using the following conditions in combination as shown in FIG. 17: use/non-use of feeder cells, use/non-use of Conditioned Medium, use of serum medium/use of serum-free medium, and administration/non-administration of blebbistatin.
Conditioned Medium was prepared by seeding 8×10^5 MMC-treated 10T1/2 cells on a 10-cm dish subjected to gelatin coating, changing the medium with 10 ml of a differentiation medium (EBM) containing SCF (50 ng/ml) and TPO (50 ng/ml) and further containing 15% serum or not containing a serum on the next day (after adhesion of cells), recovering the medium and adding 10 ml of a new medium (containing SCF and TPO) 24 hours later, pooling three-day's Conditioned Medium, and filtering the medium through a 0.22-μm filter to remove the 10T1/2 cells. When the resulting medium was used for tests, SCF and TPO were added newly. […]
The platelets contained in the supernatant of the medium were analyzed with a flow cytometer after staining with an antibody CD41 and an antibody CD42b. […]
Comparison in the expression level of CD42b in CD41-positive platelets in each population (a ratio of average fluorescence intensity of each population to average fluorescence intensity of normal condition) is shown in FIG. 18. […]
(In general: In flow cytometry, cells or beads pass a laser one at a time.)

On to “TPO: cytokine added to the culture medium (50 ng/ml)”, for which the “proliferation of iMKPC-type I cells” value in the test on iMKPC-type I cells was “TPO had no influence on their proliferation”. Also, in the test on iMKPC-type II cells [1] (Day 21 after addition of cytokine, compared with the other populations), the “expression of CD41a and CD42b” value was “higher expression in CD41a and CD42b”. Besides, the “proliferation of iMKPC-type II cells” value in the test with iMKPC-type II cells [1] is listed as “proliferation is promoted further”.

For the compound `C[C@@H](N)[C@H]1CC[C@H](C(=O)Nc2ccncc2)CC1.Cl.Cl.O` (relative stereo) [Y27632, (R)-(+)-trans-N-(4-pyridyl)-4-(1-aminoethyl)-cyclohexane carboxamide.2HCl.H2O], the “number of cells with 4N (degree of polyploidization)” value in test [2] (10 μM, Day 7, MYC/BMI1 expression suppressed, compared with cells without inhibitor (vehicle)) is recorded as “increase in the number of cells with 4N”.

For the compound `CCCC(CCC)C(=O)O` [valproic acid], the degree of polyploidization result in test [2] (0.5 mM, 39° C., 7 days, MYC/BMI1 suppressed, BCL-XL forced, ROCK inhibitor 10 μM, p53 suppressed, vs untreated control cells) is listed as “promoted polyploidization”.

Regarding “SCF: cytokine added to the culture medium (50 ng/ml)”, the “proliferation of iMKPC-type I cells” value in the test with iMKPC-type I cells is recorded as “strongly depended on SCF”. Also, in the test with iMKPC-type II cells [1], the “proliferation of iMKPC-type II cells” value is on record as “SCF had no influence on proliferation”.

Regarding `Cc1ccc2c(c1)C(=O)C1(O)CCN(c3ccccc3)C1=N2` (centres unmarked) [blebbistatin], the “number of cells with 8N or greater” value in test [2] (39° C., 7 days, MYC/BMI1 suppressed, BCL-XL forced, ROCK inhibitor 10 μM, p53 suppressed, valproic acid 0.5 mM, vs control cells) is reported as “greater”. Besides, in test [2] (39° C., 7 days, MYC/BMI1 suppressed, BCL-XL forced, vs cells without blebbistatin), the “number of cells with 8N or greater” value was “greater”. The “polyploidization by microscopic observation” value in the test with iMKPC-type II cells [3] is “polyploidized further”. In the test with megakaryocytes (CD41a+), the “cell morphology (cytoplasm)” value is “hypertrophy of cytoplasm was observed” and the proliferation capacity entry is “slight deterioration in proliferation capacity”. In the test with iMKPC-type II cells [4], the “expression level of CD42b in CD41-positive platelets (ratio of average fluorescence intensity to normal condition)” value is on record as “Influence of blebbistatin was not found” and the “platelet production amount (ratio of number of CD41+ CD42b+ platelets to normal condition)” value was “No significant difference”.
